According to article PMC5608352, “Formyl peptide derived lipopeptides disclose differences between the receptors in mouse and men and call the pepducin concept in question” (PLoS ONE, 2017):
Residues, ends and D or L forms follow the SMILES beside them. *: point of attachment. Palmitoyl = CCCCCCCCCCCCCCCC(=O)*

Experiments:
Type in all cases: cell-based
Fpr2 [1] = biological target: T1, Fpr2 (Mus musculus, UniProt O88536); assay: Inhibition of F2M2-induced superoxide release, WT mouse neutrophils; conditions: mF2Pal16 500 nM; F2M2 150 nM; three independent experiments
T1 construct: WT mouse neutrophils (5 x 10^4 cells) were pre-incubated without (solid line) or with mF2Pal16; endogenous in cells; host or cells: bone marrow neutrophils of C57BL/6 wild-type mice, TNF-alpha primed
T1 sequence (O88536 1-351): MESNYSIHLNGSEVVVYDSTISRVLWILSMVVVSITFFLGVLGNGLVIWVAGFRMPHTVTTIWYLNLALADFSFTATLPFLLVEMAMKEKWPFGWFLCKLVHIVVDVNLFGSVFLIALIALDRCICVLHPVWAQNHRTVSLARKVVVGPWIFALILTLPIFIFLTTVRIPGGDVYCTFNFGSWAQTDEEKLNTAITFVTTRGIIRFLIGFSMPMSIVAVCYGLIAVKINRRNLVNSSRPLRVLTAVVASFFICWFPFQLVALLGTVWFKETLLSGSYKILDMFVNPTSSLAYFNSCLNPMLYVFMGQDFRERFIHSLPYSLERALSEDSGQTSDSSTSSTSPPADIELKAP
From the text: (§1) Mice (8–12 weeks of age) were killed by cervical dislocation, the femurs and tibias were removed and freed of soft tissue attachments, and the extreme distal tip of each extremity was cut off. KRG without Ca^2+ and Mg^2+ (KRG-) was forced through the bone by using a 1-mL syringe with a 27-gauge needle. After dispersing cell clumps and removing the debris, the bone marrow granulocytes were isolated according to an earlier described procedure with some modifications. Briefly, a cell suspension in 2 mL of KRG- was laid on top of a three-layer Percoll gradient (1.095, 1.085, and 1.070 g/mL). The density of each Percoll solution was verified using density marker beads. […] The cell number and population of bone marrow cells were determined by flow cytometry based on forward scatter (size) and side scatter (density) localization.
(§2) NADPH-oxidase activity was determined using an isoluminol and HRP-enhanced chemiluminescence (CL) system that allow for the determination of superoxide production. The CL activity was measured in a six-channel Biolumat LB 9505 apparatus (Berthold Co., Wildbad, Germany), using disposable 4-mL polypropylene tubes with 1 mL reaction mixture. […] The light emission was recorded continuously over time and presented as superoxide production (in arbitrary light units, cpm x10^-6) as a function of time (min). […]

mouse neutrophils = biological target: T2, mouse neutrophils (Mus musculus, UniProt O88536); assay: Direct activation: superoxide release (isoluminol/HRP chemiluminescence), WT mouse bone marrow neutrophils; conditions: WT mouse (C57BL/6) bone marrow neutrophils, TNF-α primed, 5 x 10^4 cells, 37°C, isoluminol/HRP CL, peak activity; pepducin 1 μM in figures
T2 sequence (O88536 1-351): T1 sequence (O88536 1-351)
From the text: Mice (8–12 weeks of age) were killed by cervical dislocation, the femurs and tibias were removed and freed of soft tissue attachments, and the extreme distal tip of each extremity was cut off. KRG without Ca^2+ and Mg^2+ (KRG-) was forced through the bone by using a 1-mL syringe with a 27-gauge needle. After dispersing cell clumps and removing the debris, the bone marrow granulocytes were isolated according to an earlier described procedure with some modifications. Briefly, a cell suspension in 2 mL of KRG- was laid on top of a three-layer Percoll gradient (1.095, 1.085, and 1.070 g/mL). The density of each Percoll solution was verified using density marker beads. After centrifugation at 500 × g for 30 min at 4°C in a swinging bucket rotor, the lowest band (1.085/1.095 g/mL interface) was collected as the neutrophil fraction. After washing with KRG-, remaining red blood cells were eliminated by hypotonic lysis. After a final wash with KRG-, the cells were resuspended in KRG. The cell number and population of bone marrow cells were determined by flow cytometry based on forward scatter (size) and side scatter (density) localization.
NADPH-oxidase activity was determined using an isoluminol and HRP-enhanced chemiluminescence (CL) system that allow for the determination of superoxide production. The CL activity was measured in a six-channel Biolumat LB 9505 apparatus (Berthold Co., Wildbad, Germany), using disposable 4-mL polypropylene tubes with 1 mL reaction mixture. The tubes contained 4 U HRP and 10 μg/mL isoluminol together with the cells that were equilibrated in the Biolumat for 5 min at 37°C, after which the stimulus solution (100 μL) was added. The light emission was recorded continuously over time and presented as superoxide production (in arbitrary light units, cpm x10^-6) as a function of time (min). The activity before stimulus addition was recorded as basal line and this activity was not changed in vehicle control samples. Since the FPR/Fpr-mediated superoxide production with respect to the onset and decline are very similar, the peak activities were used to compare the responses induced.
Naïve bone marrow cells produce very low levels of superoxide upon stimulation and to increase this production the cells were routinely primed for one hour at RT followed by TNF-α (10 ng/mL, final concentration) priming for a period of 20 min at 37°C [10]. The cells were then kept on ice until further analysis, as described above. The reason for choosing the chemiluminescence based NADPH-oxidase assay system was that very few cells are required, allowing us to monitor and quantify receptor-mediated events with the limited number of mouse bone marrow neutrophils available.
Data analysis was performed using Graph Pad Prism 7.0. The EC50/IC50 values were determined from experiments in which the activities were normalized to the response induced by maximal response or induced by agonist in the absence of inhibitor. The statistical analysis was performed on raw data using Student’s t-test when two groups were compared or one-way ANOVA with Dunnett’s multiple comparisons test in comparison to the control response when three groups were compared. * p ≤ 0.05 was considered significant.

FPR2 [2] = assay: Inhibition of PSMα2-induced superoxide release, human neutrophils
From the text: (§3) Human peripheral blood neutrophils were isolated from buffy coats from healthy blood donors using dextran sedimentation and Ficoll-Paque gradient centrifugation as described. The remaining erythrocytes were disrupted by hypotonic lysis and the neutrophils were washed twice, suspended in KRG and, stored on melting ice until use. This isolation process permits cells to be purified with minimal granule mobilization. The buffy coats were obtained from the blood bank at Sahlgrenska University Hospital. Ethics approval was not needed since the buffy coats were provided anonymously and could not be traced back to a specific individual. This is in line with Swedish legislation section code 4§ 3p SFS 2003:460 (Lag om etikprövning av forskning som avser människor).
as §2, with “(min). The activity before stimulus addition was recorded as basal line and this activity was not changed in vehicle control samples.” for “(min).”

Fpr2 [3] = biological target: T1, Fpr2; assay: Inhibition of PSMα2-induced superoxide release, WT mouse neutrophils; conditions: mF2Pal16 500 nM, 5 min pre-incubation; PSMα2 10 nM
From the text: as §1, §2

Fpr1 = assay: Inhibition of fMIFL-induced superoxide release, WT mouse neutrophils; conditions: fMIFL 10 nM; mF2Pal16 1 μM (inset) or 500 nM
From the text: as §1, §2

human neutrophils = assay: Direct activation: superoxide release (isoluminol/HRP chemiluminescence), human neutrophils; conditions: 10^5 cells, 37°C, isoluminol/HRP CL, pepducin 1 μM
From the text: as §3
as §2, with “(min). The activity before stimulus addition was recorded as basal line and this activity was not changed in vehicle control samples.” for “(min).”

Fpr2 [4] = biological target: T1, Fpr2; assay: Inhibition of F1Pal16-induced superoxide release, WT mouse neutrophils; conditions: mF2Pal16 250 nM, 5 min pre-incubation, F1Pal16 500 nM, one of three experiments
From the text: as §1, §2

SMILES: CCCCCCCCCCCCCCCC(=O)N[C@@H](CCCCN)C(=O)N[C@H](C(=O)N[C@@H](CC(N)=O)C(=O)N[C@@H](CCCNC(=N)N)C(=O)N[C@@H](CCCNC(=N)N)C(=O)N[C@@H](CC(N)=O)C(=O)N[C@@H](CC(C)C)C(=O)N[C@H](C(=O)N[C@@H](CC(N)=O)C(=O)N[C@@H](CO)C(=O)N[C@@H](CO)C(=O)N[C@@H](CCCNC(=N)N)C(=O)N1CCC[C@H]1C(=O)N[C@@H](CC(C)C)C(=O)N[C@@H](CCCNC(=N)N)C(=O)N[C@H](C(=O)O)C(C)C)C(C)C)[C@@H](C)CC [mF2Pal16] (Palmitoyl-KINRRNLVNSSRPLRV-OH; C-terminus assumed)
- effect on F2M2 response, mouse neutrophils (Fpr2 [1]): inhibitory effect
- superoxide release / activation of WT mouse neutrophils (mouse neutrophils): No activation of mouse neutrophils
- effect on PSMα2 response, human neutrophils (FPR2 [2]): largely inhibited
- inhibition of PSMα2 response, mouse neutrophils (Fpr2 [3]): potently inhibited
- effect on fMIFL response, mouse neutrophils (Fpr1): no effect
- superoxide release / activation of human neutrophils (human neutrophils): did not activate human neutrophils to produce superoxide
- effect of mF2Pal16 on F1Pal16 response, WT mouse neutrophils (Fpr2 [4]): inhibits the activity of F1Pal16 in mouse neutrophils
- effect of mF2Pal16 on F1Pal16 response, WT mouse neutrophils (Fpr2 [4]; listed as mF2pal16): the response was sensitive to the pepducin inhibitor mF2pal16
